Tested on: P12-Ichikawa
Test: cell viability relative to DMSO control; higher = less cytotoxic
Conditions: 48 h
In short: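 Viability is a per-plate percentage relative to DMSO wells, with cell-free wells as background. CellTiter-Glo One luminescence was read after 48 h at 37°C on 1536-well plates (5 μl) of NOMO1 or SEM (500 cells/well) or P12-Ichikawa (1000 cells/well) leukemia cells. The cells had been adapted for at least four passages in each medium and pin-dosed with library compounds in DMSO from 47 μM to 0.79 nM in 11 threefold steps.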

[1] = HPLM + 10% dialyzed FBS, 0.000781 µM
[2] = HPLM + 10% dialyzed FBS, 0.00234 µM
[3] = HPLM + 10% dialyzed FBS, 0.00702 µM
[4] = HPLM + 10% dialyzed FBS, 0.0211 µM
[5] = HPLM + 10% dialyzed FBS, 0.0632 µM
[6] = HPLM + 10% dialyzed FBS, 0.19 µM
[7] = HPLM + 10% dialyzed FBS, 0.569 µM
[8] = HPLM + 10% dialyzed FBS, 1.71 µM
[9] = HPLM + 10% dialyzed FBS, 5.12 µM
[10] = HPLM + 10% dialyzed FBS, 15.4 µM
[11] = HPLM + 10% dialyzed FBS, 46.1 µM
[12] = RPMI 5 mM glucose + 10% FBS, 0.000781 µM
[13] = RPMI 5 mM glucose + 10% FBS, 0.00234 µM
[14] = RPMI 5 mM glucose + 10% FBS, 0.00702 µM
[15] = RPMI 5 mM glucose + 10% FBS, 0.0211 µM
[16] = RPMI 5 mM glucose + 10% FBS, 0.0632 µM
[17] = RPMI 5 mM glucose + 10% FBS, 0.19 µM
[18] = RPMI 5 mM glucose + 10% FBS, 0.569 µM
[19] = RPMI 5 mM glucose + 10% FBS, 1.71 µM
[20] = RPMI 5 mM glucose + 10% FBS, 5.12 µM
[21] = RPMI 5 mM glucose + 10% FBS, 15.4 µM
[22] = RPMI 5 mM glucose + 10% FBS, 46.1 µM
[23] = RPMI 5 mM glucose + 10% dialyzed FBS, 0.000781 µM
[24] = RPMI 5 mM glucose + 10% dialyzed FBS, 0.00234 µM
[25] = RPMI 5 mM glucose + 10% dialyzed FBS, 0.00702 µM
[26] = RPMI 5 mM glucose + 10% dialyzed FBS, 0.0211 µM
[27] = RPMI 5 mM glucose + 10% dialyzed FBS, 0.0632 µM
[28] = RPMI 5 mM glucose + 10% dialyzed FBS, 0.19 µM
[29] = RPMI 5 mM glucose + 10% dialyzed FBS, 0.569 µM
[30] = RPMI 5 mM glucose + 10% dialyzed FBS, 1.71 µM
[31] = RPMI 5 mM glucose + 10% dialyzed FBS, 5.12 µM
[32] = RPMI 5 mM glucose + 10% dialyzed FBS, 15.4 µM
[33] = RPMI 5 mM glucose + 10% dialyzed FBS, 46.1 µM

| SMILES | cell viability [1] [%] | cell viability [2] [%] | cell viability [3] [%] | cell viability [4] [%] | cell viability [5] [%] | cell viability [6] [%] | cell viability [7] [%] | cell viability [8] [%] | cell viability [9] [%] | cell viability [10] [%] | cell viability [11] [%] | cell viability [12] [%] | cell viability [13] [%] | cell viability [14] [%] | cell viability [15] [%] | cell viability [16] [%] | cell viability [17] [%] | cell viability [18] [%] | cell viability [19] [%] | cell viability [20] [%] | cell viability [21] [%] | cell viability [22] [%] | cell viability [23] [%] | cell viability [24] [%] | cell viability [25] [%] | cell viability [26] [%] | cell viability [27] [%] | cell viability [28] [%] | cell viability [29] [%] | cell viability [30] [%] | cell viability [31] [%] | cell viability [32] [%] | cell viability [33] [%] |
| --- | --- | --- | --- | --- | --- | --- | --- | --- | --- | --- | --- | --- | --- | --- | --- | --- | --- | --- | --- | --- | --- | --- | --- | --- | --- | --- | --- | --- | --- | --- | --- | --- | --- |
| O=C(/C=C/c1ccc(/C=C/C(=O)Nc2ccc(C3=NCCN3)cc2)cc1)Nc1ccc(C2=NCCN2)cc1 | 98.7 | 102 | 111 | 115 | 117 | 108 | 117 | 115 | 119 | 115 | 108 | 101 | 104 | 111 | 111 | 109 | 119 | 109 | 106 | 112 | 107 | 110 | 91.3 | 109 | 107 | 96.7 | 104 | 115 | 105 | 112 | 109 | 112 | 100 |
| O=C(O)CCCCCC(=O)NN=C1CCCC1 | 96.2 | 103 | 99.4 | 108 | 110 | 107 | 115 | 116 | 111 | 99.7 | 73.2 | 89 | 103 | 104 | 113 | 105 | 112 | 106 | 120 | 104 | 112 | 105 | 85.4 | 98.8 | 103 | 100 | 107 | 98.1 | 113 | 99.3 | 105 | 104 | 109 |
| C/C1=C2/[N]3[Co+]456([OH])<-[N]7=C1[C@@H](CCC(N)=O)C(C)(C)/C7=C/C1=[N]->4C(=C(/C)C4=[N]->5[C@@](C)([C@H]3[C@H](CC(N)=O)[C@@]2(C)CCC(=O)NC[C@@H](C)OP(=O)([O-])O[C@H]2[C@@H](O)[C@@H](n3c[n]->6c5cc(C)c(C)cc53)O[C@@H]2CO)[C@@](C)(CC(N)=O)[C@@H]4CCC(N)=O)/[C@@](C)(CC(N)=O)[C@@H]1CCC(N)=O | 103 | 97.2 | 95.9 | 99.2 | 99.9 | 97.8 | 92.8 | 93.2 | 76.8 | 77.7 | 71.3 | 97.5 | 88.7 | 97.9 | 98.1 | 95.7 | 88.3 | 98.8 | 93.4 | 85.8 | 85.4 | 69.8 | 82.3 | 85.2 | 86.5 | 77.3 | 83 | 79.9 | 75.7 | 76.7 | 73.9 | 76.9 | 61 |
| COc1ccc(F)c(F)c1C(=O)c1cnc(NC2CCN([S+](C)(=O)[O-])CC2)nc1N | 111 | 116 | 114 | 115 | 118 | 112 | 87.4 | 77.6 | 86 | 67.6 | 3.92 | 113 | 114 | 126 | 116 | 116 | 117 | 78.3 | 72.2 | 63.7 | 43.2 | 4.54 | 114 | 121 | 116 | 127 | 116 | 113 | 86.8 | 78.2 | 58.4 | 45.9 | 5.54 |
| C[C@H](NC(=O)Cc1cc(F)cc(F)c1)C(=O)N[C@H](C(=O)OC(C)(C)C)c1ccccc1 | 94 | 90.9 | 94.9 | 94.1 | 94.6 | 92.5 | 89 | 88.3 | 86.9 | 88 | 80.4 | 92.3 | 91.7 | 91.2 | 87 | 90.7 | 95.4 | 89.1 | 82.7 | 87.9 | 87.6 | 92.8 | 78.9 | 82.5 | 79.8 | 79.7 | 86.1 | 88.8 | 78.2 | 86.1 | 83.7 | 77.4 | 73.3 |
| C[S+](=O)([O-])Oc1ccc2c(NC(N)=O)c(C(=O)c3ccc(Cl)cc3Cl)oc2c1 | 113 | 120 | 122 | 116 | 120 | 113 | 122 | 119 | 108 | 99.9 | 66.5 | 112 | 109 | 121 | 117 | 130 | 116 | 123 | 125 | 129 | 109 | 73.3 | 116 | 118 | 112 | 110 | 117 | 122 | 122 | 126 | 118 | 105 | 91.5 |
| CN(CCOc1ccc(CC2SC(=O)NC2=O)cc1)c1ccccn1 (configuration not stated) | 116 | 124 | 113 | 121 | 116 | 115 | 120 | 114 | 114 | 111 | 103 | 123 | 130 | 122 | 116 | 120 | 125 | 129 | 125 | 115 | 113 | 106 | 123 | 123 | 127 | 119 | 116 | 123 | 127 | 118 | 113 | 112 | 97.4 |
| C[C@@H]1CC[C@@]2(CC[C@]3(C)\C(=C/C[C@@H]4[C@@]5(C)CC[C@H](O)C(C)(C)[C@@H]5CC[C@@]34C)[C@@H]2[C@H]1C)C(O)=O | 112 | 117 | 113 | 109 | 120 | 117 | 109 | 116 | 115 | 125 | 113 | 117 | 112 | 104 | 113 | 118 | 116 | 116 | 116 | 116 | 124 | 115 | 99.7 | 106 | 106 | 112 | 123 | 114 | 115 | 110 | 119 | 109 | 113 |
| CC(=O)OC[C@@H]1O[C@H]([C@H](OC(C)=O)[C@@H]1OC(C)=O)N2\C=C/C(=O)NC2=O | 119 | 120 | 128 | 122 | 114 | 120 | 110 | 110 | 113 | 106 | 71.8 | 121 | 117 | 121 | 116 | 117 | 108 | 102 | 113 | 108 | 114 | 98.3 | 120 | 106 | 116 | 111 | 111 | 111 | 111 | 108 | 99.7 | 104 | 92 |
| C[C@]1(O)CC(C1)C2=NC(=C3[N]2C=CN=C3N)C4=CC5=C(C=C4)C=CC(=N5)C6=CC=CC=C6 (configuration not stated) | 94 | 97.3 | 104 | 103 | 107 | 97.7 | 105 | 97.4 | 75.5 | 4.9 | 1.89 | 102 | 101 | 103 | 101 | 93.5 | 89.6 | 96.4 | 59.5 | 50.3 | 3.05 | 1.49 | 96.1 | 96.5 | 94.5 | 98.2 | 101 | 94.5 | 99 | 71 | 58.2 | 4.69 | 1.85 |
| COC1=CC=C(C=C1)/C2=C(O)/C(=O)C3=C(O)C=C(O)C(=C3O2)CC=C(C)C | 115 | 115 | 115 | 117 | 121 | 122 | 121 | 119 | 113 | 87.9 | 122 | 108 | 111 | 105 | 110 | 108 | 115 | 114 | 120 | 123 | 67 | 121 | 118 | 110 | 122 | 116 | 127 | 115 | 125 | 128 | 117 | 95.8 | 118 |
| CC(C)(N)c1ccc(-c2nc3ccccc3nc2-c2ccccc2)cc1 | 110 | 114 | 108 | 65.8 | 23.2 | 10.3 | 7.18 | 5.6 | 5.46 | 4.51 | 4.37 | 96.3 | 120 | 109 | 111 | 84.4 | 18.8 | 10.2 | 6.88 | 6.89 | 4.41 | 3.11 | 108 | 117 | 111 | 114 | 68.8 | 22.3 | 13.9 | 8.23 | 7.24 | 7.26 | 4.8 |
| C[C@]12CC[C@H]3[C@@H](CC(=C)\C4=C\C(=O)\C=C/[C@]34C)[C@@H]1CCC2=O | 105 | 107 | 105 | 107 | 107 | 101 | 104 | 103 | 98 | 99 | 79.9 | 96.3 | 110 | 105 | 102 | 108 | 96.2 | 102 | 107 | 101 | 98 | 63.7 | 96.7 | 107 | 99.6 | 101 | 99.1 | 95.2 | 88.5 | 103 | 102 | 94.5 | 57.4 |
| CC(=O)SC[C@@H](C)C(=O)N1CCC[C@H]1C(=O)N[C@@H](Cc1ccccc1)C(=O)O | 99.5 | 108 | 108 | 104 | 113 | 107 | 106 | 104 | 102 | 101 | 94.1 | 103 | 93.2 | 97.6 | 100 | 102 | 97.8 | 102 | 96.7 | 98.4 | 91.3 | 90 | 99.7 | 101 | 102 | 101 | 99.7 | 100 | 95.4 | 101 | 92.2 | 90.8 | 85.2 |

— the supplement of paper PMC11451515
